Experimental data from paper PMC4805781 (International Journal for Parasitology: Drugs and Drug …, 2016).

Tests used:
[1] = tested on: P. falciparum HB3 infected cultures; assay: High content image-based assay of merozoite egress and invasion; type: cell-based, Plasmodium falciparum; conditions: HB3, treated at 42 hpi, 10 μM, 24 h
Microsomal stability = type: in vitro ADME; conditions: mouse, liver microsomes
[2] = tested on: Synchronized P. falciparum Dd2 cultures; assay: Flow cytometric profiling of inhibition, YOYO-1 staining; type: cell-based, Plasmodium falciparum; conditions: Dd2, treated at 6 hpi ring stage, 5×EC50, sampled at 12 h intervals
[3] = Double-sink parallel artificial membrane permeability assay; type: in vitro ADME

## CC(C)C[C@H](NC(=O)[C@H]1O[C@@H]1C(=O)O)C(=O)NCCCCN=C(N)N [E-64]
[1]
  Effect on merozoite egress and invasion: blocked egress

## C[C@]12CC[C@H]3[C@@H](CCC4=CC(=O)CC[C@@]43C)[C@@H]1CC[C@@H]2O [Testosterone]
Microsomal stability
  remaining at 1 h: 26.1%

## C[C@@H]1CC[C@H]2[C@@H](C)C(=O)O[C@@H]3O[C@@]4(C)CC[C@@H]1[C@]32OO4 [artemisinin]
[1]
  Effect on merozoite egress and invasion: did not block merozoite egress or invasion
[2]
  Effect on parasite maturation by flow cytometry (DNA content): maturation is blocked

## COCCc1ccc(OCC(O)CNC(C)C)cc1 (stereo not shown) [metoprolol]
[3]; pH 5.0
  Permeability pH 5.0 (−logPe): > 5.4 −logPe
[3]; pH 6.2
  Permeability pH 6.2 (−logPe): 4.4 −logPe
[3]; pH 7.4
  Permeability pH 7.4 (−logPe): 3.6 −logPe
